Where two headings read alike, the source gives them in different places.
Legend:
LNCaP cells = test: MTT cell proliferation assay, LNCaP; format: cell-based; settings: for inhibition at 10 µM: Homo sapiens, LNCaP cell line, compound at 10 μM; for effect on growth of LNCaP cells: various concentrations; for change in cell viability / decrease in cell viability: 30 µM, versus cells not treated; for change in cell viability: P = 0.0001
Protocol: 3-(4,5-Dimethythiazol-2-yl)-2,5-diphenyl-2-H-tetrazolium bromid (MTT) colorimetric assay was utilized to evaluate cell proliferation, which can reflect the bioactivity and cytotoxicity of test compounds at cellular level. […] After incubation at 37 °C for 24 h, cells were treated with serial dilutions of indicated compounds (and 1 nM DHT for LNCaP culture) and incubated for another 3 days. Afterward, 10 μl of 5 mg/ml MTT solution was added into each well and further incubated for another 4 h. Then, 100 μl of triplex 10% SDS-0.1% HCl-PBS solutions were added to dissolve the formazan deposited on the bottom of the plates and the plates were then further retained in incubator overnight. The absorbance at 570 nm was measured with the reference wavelength at 650 nm with a spectrophotometer (Bioteck Eon, Winooski, VT).

[1] = tested on: AR transcriptional activity; test: LNCaP-ARR2PB-eGFP transcriptional activity assay, antagonist mode (with DHT); format: cell-based; settings: for EC50: read-out: Antagonistic EC50; for effect on eGFP expression: 10 µM compound in the presence of 1 nM DHT, versus DHT control
[2] = tested on: AR transcriptional activity; test: LNCaP-ARR2PB-eGFP transcriptional activity assay, agonist mode (without DHT); format: cell-based
Protocol: 1 nM DHT was added for background fluorescence. In addition, cells receiving equal volume of DMSO solution with (dark gray bar) or without (light gray bar) DHT served as controls too. […] C. […] The test concentrations range from 0.001 nM to 10 µM. DHT served as the positive control. Assays were performed in triplicate. Multiple group comparisons were analyzed with 1-way ANOVA (**, P < 0.05 were considered statistically significant).
The agonistic effects of the screened compounds were analyzed by stimulating the cell growth of LNCaP-ARR2PB-eGFP without prior addition of DHT. Cells were incubated with various concentrations of HBP1-3, HBP1-17, HBP1-38, and HBP1-51, respectively, ranging from 1 × 10^−3 nM to 1 × 10^4 nM (Figure 4C).
A cell line of LNCaP that stably expresses eGFP under the regulation of an androgen response element was generated to investigate the agonist/antagonist activity of the selected compounds as previously described, [34]. […] For lentiviral infection, LNCaP cells were plated and proliferated to a confluence of 60% before adding 5 ml of the collected lentivirus. Medium was refreshed 16 h later and cells were incubated for another two days. GFP expression in the transfected cell was examined with a fluorescent microscope. Subsequently, the infected cells were cultured in complete medium containing 1 μg/ml puromycin. This procedure was repeated for three cycles in the next subculture process to adequately eliminate the non-transfected clones. Cells surviving the screening process were AR-regulated eGFP-expressing LNCaP cells (LNCaP-ARR2PB-eGFP) and were cultured for subsequent antagonist/agonist assay.

AR-LBD = biological target: T1, AR-LBD (Homo sapiens, UniProt P10275); test: PolarScreen AR competitor assay (fluorescence polarization); format: binding; settings: competition with Flu-AR ligand; for EC50: gradient concentrations 0.1–100 µM, read-out: Binding EC50; for IC50: 0.1–100 µM, read-out: IC50, binding to AR-LBD
T1 sequence (P10275 669-900 limits assumed): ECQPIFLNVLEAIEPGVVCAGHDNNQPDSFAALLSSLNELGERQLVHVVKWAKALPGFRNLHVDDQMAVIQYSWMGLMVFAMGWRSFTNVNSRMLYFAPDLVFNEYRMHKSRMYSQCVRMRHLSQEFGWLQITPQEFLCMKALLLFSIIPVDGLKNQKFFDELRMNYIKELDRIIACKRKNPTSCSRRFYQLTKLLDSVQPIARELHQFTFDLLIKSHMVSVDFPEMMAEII

C4-2 cells = test: MTT cell proliferation assay, C4-2; format: cell-based; settings: for reduction of cell viability: C4-2, 30 µM, versus cells without treatment
Description: We further tested C4-2, an androgen-independent AR^+ PCa cell line, which is more malignant than LNCaP. […] Given inhibitory effect was only observed at higher concentrations, it remains to be addressed whether the inhibition is attributed to AR blocking or the inherent toxicities of the tested compounds. We thus tested these compounds on DU145, an AR^− PCa cell line.
3-(4,5-Dimethythiazol-2-yl)-2,5-diphenyl-2-H-tetrazolium bromid (MTT) colorimetric assay was utilized to evaluate cell proliferation, which can reflect the bioactivity and cytotoxicity of test compounds at cellular level. PCa cells were cultured in 1640 RPMI media containing 5% charcoal-stripped serum (CSS) at a density of 5000 cells per well for LNCaP, 1000 cells per well for C4-2, and 2000 cells per well for DU145 in 96-well plates. After incubation at 37 °C for 24 h, cells were treated with serial dilutions of indicated compounds (and 1 nM DHT for LNCaP culture) and incubated for another 3 days. Afterward, 10 μl of 5 mg/ml MTT solution was added into each well and further incubated for another 4 h. Then, 100 μl of triplex 10% SDS-0.1% HCl-PBS solutions were added to dissolve the formazan deposited on the bottom of the plates and the plates were then further retained in incubator overnight. The absorbance at 570 nm was measured with the reference wavelength at 650 nm with a spectrophotometer (Bioteck Eon, Winooski, VT).

[3] = without DHT, 1 × 10^−3 nM to 1 × 10^4 nM
[4] = LNCaP-ARR2PB-eGFP, in the presence of DHT

CC(O)(CS(=O)(=O)c1ccc(F)cc1)C(=O)Nc1ccc(C#N)c(C(F)(F)F)c1 (centres unmarked) [Bic, bicalutamide, reference compound]
inhibition at 10 µM (LNCaP cells): 16.5 ± 1%
effect on growth of LNCaP cells (LNCaP cells; LNCaP): reduced the growth of LNCaP cells in a dose-dependent manner
EC50 [1]: 690 ± 85 nM

C[C@]12CCC(=O)C[C@@H]1CC[C@@H]1[C@@H]2CC[C@]2(C)[C@@H](O)CC[C@@H]12 [DHT, dihydrotestosterone, reference compound]
agonistic effect on eGFP expression [2]: upregulated eGFP expression in a dose-dependent manner

CNC(=O)c1ccc(N2C(=S)N(c3ccc(C#N)c(C(F)(F)F)c3)C(=O)C2(C)C)cc1F [Enz, enzalutamide, reference compound]
effect on growth of LNCaP cells (LNCaP cells; LNCaP): reduced the growth of LNCaP cells in a dose-dependent manner

Nc1ccc2c(c1)C(=O)N(c1cccc3ccccc13)C2=O [HBP1-3]
agonistic effect on eGFP expression [2, 3]: did not cause notable change
inhibition at 10 µM (LNCaP cells): 7.8 ± 4.4%
change in cell viability (LNCaP cells; LNCaP): significant decrease in cell viability
EC50 (AR-LBD): > 30 µM
reduction of cell viability (C4-2 cells): 12%
effect on eGFP expression [1]: did not show obvious effect on eGFP expression

O=C(CC1C(=O)NCCN1Cc1cccc2ccccc12)NCCn1ccc2ccccc21 (centres unmarked) [HBP1-17]
agonistic effect on eGFP expression [2, 3]: did not cause notable change
inhibition at 10 µM (LNCaP cells): 7.8 ± 4.1%
decrease in cell viability (LNCaP cells; LNCaP): ≥ 20%
EC50 (AR-LBD): > 30 µM
reduction of cell viability (C4-2 cells): 10%
effect on eGFP expression [1]: did not show obvious effect on eGFP expression

COc1ccc(CC2(CCC(=O)NCCn3ccc4ccccc43)CCC(=O)N2)c2ccccc12 (centres unmarked) [HBP1-38]
agonistic effect on eGFP expression [2, 3]: did not cause notable change
inhibition at 10 µM (LNCaP cells): 18.6 ± 4.7%
inhibitory effect on LNCaP growth (LNCaP cells; LNCaP, 10 µM): inhibitory effect comparable to Bic
decrease in cell viability (LNCaP cells; LNCaP): ≥ 40%
EC50 (AR-LBD): > 30 µM
reduction of cell viability (C4-2 cells): ~40%
effect on eGFP expression [1]: promoted eGFP expression

Cc1cc(O)nc2ccc(S(=O)(=O)Nc3ccc(O)cc3)cc12 [HBP1-51]
agonistic effect on eGFP expression [2, 3]: dose-dependent upregulation of GFP expression
effect on growth of LNCaP cells (LNCaP cells; LNCaP): did not show apparent inhibition tendency
IC50 (AR-LBD): 3.96 µM
EC50 (AR-LBD): 3.96 µM
maximum increase of cell viability (C4-2 cells; C4-2, all tested concentrations, versus untreated cells, not significant (P = 0.14)): below 20%
effect on eGFP expression [1]: promoted eGFP expression
Antagonistic EC50 [1, 4]: Agonist

Cc1ccccc1NCC(=O)N/N=C/c1ccc(-c2ccc(Cl)c(Cl)c2)o1 [HBP1-58]
inhibition at 10 µM (LNCaP cells): 2.2 ± 0.8%
change in cell viability (LNCaP cells; LNCaP): significant decrease in cell viability
IC50 (AR-LBD): 4.92 µM
EC50 (AR-LBD): 4.92 µM
effect on eGFP expression [1]: significantly reduced eGFP expression
EC50 [1, 4]: 3250 ± 430 nM
IC50 ([1]; LNCaP-ARR2PB-eGFP, with DHT, read-out: IC50, antagonistic effect on AR transcriptional activity): 3.25 ± 0.43 µM
